Test results reported in BindingDB's records for doi:10.1016/j.bmc.2012.01.011 (Korea Research Institute of Bioscience and Biotechnology, 2012).
pIC50: −log10 of the molar value.

Target: Neuraminidase (Influenza A virus (strain A/Brevig Mission/1/1918 H1N1), UniProt Q9IGQ6)
Assay: Inhibition of recombinant influenza A virus H1N1 A/Bervig_Mission/1/18 sialidase activity using 4-methylumbelliferyl-alpha-D-N-acetylneuraminic acid sodium salt hydrate as substrate by fluorimetric analysis

Chain of Neuraminidase (Q9IGQ6 whole entry): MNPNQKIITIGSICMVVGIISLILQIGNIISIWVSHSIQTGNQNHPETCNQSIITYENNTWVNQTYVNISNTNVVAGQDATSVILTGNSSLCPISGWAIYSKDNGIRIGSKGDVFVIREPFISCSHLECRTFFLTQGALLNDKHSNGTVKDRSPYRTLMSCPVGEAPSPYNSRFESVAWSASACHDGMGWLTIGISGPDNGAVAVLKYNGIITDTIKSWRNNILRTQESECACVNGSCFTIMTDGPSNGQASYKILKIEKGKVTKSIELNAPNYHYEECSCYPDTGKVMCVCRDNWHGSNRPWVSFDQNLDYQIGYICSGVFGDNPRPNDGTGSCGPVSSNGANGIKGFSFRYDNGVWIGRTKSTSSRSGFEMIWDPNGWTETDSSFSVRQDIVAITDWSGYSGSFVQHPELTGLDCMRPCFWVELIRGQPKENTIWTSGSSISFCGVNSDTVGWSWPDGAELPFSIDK

Row | Compound | pIC50
1 | CC(C)=CC=C(OC(=O)C(C)C)c1cc(O)c2c(O)ccc(O)c2c1O | 4.39
2 | CC(C)=CC=C(OC(=O)CC(C)(C)O)c1cc(O)c2c(O)ccc(O)c2c1O [(R)-1-(5,8-dihydroxy-1,4-dioxo-1,4-dihydronaphthalen-2-yl)-4-methylpent-3-enyl 3-hydroxy-3-methylbutanoate] | 4.39
